Experimental data taken from paper PMC6030209, “Structure-Activity Investigations and Optimisations of Non-metabolite Agonists for the Succinate Receptor 1” (Scientific Reports, 2018).
Like-named read-outs stand apart in the source and are kept apart here.

Tests used:
Type in all cases: cell-based
mSUCNR1 = target: T1, mSUCNR1 (Mus musculus, UniProt Q99MT6); assay: IP3 turnover assay in mSUCNR1 transfected HEK-293 cells; conditions: for mSUCNR1 % @10^−4M / mSUCNR1 efficacy, %: IP3 turnover; for mSUCNR1 % @10^−4M: relative to succinate (100%); for mSUCNR1 efficacy, %: efficacy relative to succinate (100%), HEK cells (N = 3)
T1 construct: FLAG (own knowledge: pCMV-Tag 2B is an N-terminal FLAG vector); host or cells: HEK-293, transient transfection with Lipofectamine-2000
T1 sequence (Q99MT6 1-317): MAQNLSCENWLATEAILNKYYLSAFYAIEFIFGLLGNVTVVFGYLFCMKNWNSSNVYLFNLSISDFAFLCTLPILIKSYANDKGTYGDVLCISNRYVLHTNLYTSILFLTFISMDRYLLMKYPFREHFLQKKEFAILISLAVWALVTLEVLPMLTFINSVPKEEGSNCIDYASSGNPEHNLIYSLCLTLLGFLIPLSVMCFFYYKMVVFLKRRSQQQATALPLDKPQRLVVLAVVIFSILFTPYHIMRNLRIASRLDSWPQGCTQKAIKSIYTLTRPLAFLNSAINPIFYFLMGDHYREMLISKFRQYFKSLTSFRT
Procedure: (§1) Receptor constructs for mSUCNR1 and hSUCNR1 were bought from Origene and cloned into the eukaryotic expression vector pCMV-Tag(2B) (Stratagene).
(§2) Transient transfection of the HEK-293 cells was done with Lipofectamine-2000 according to manufacturer’s protocol. Cells were supplemented with fresh medium after 5 h.
(§3) 96-well plates were coated with poly-D-lysine and HEK-293 cells were plated (35.000 cells/well). Cells were transfected for 5 h the following day and subsequently incubated O/N with 0.5 μCi/mL myo[3H]inositol (Perkin Elmer) in 100 μL growth medium. On day 3 cells were washed with 200 µL HBSS/well (Gibco, Life Technologies) followed by a pre-incubation (30 min, 37 °C) with 100 µL HBSS supplemented with 10 mM LiCl. Cells were stimulated with ligand (120 min, 37 °C) and lysed with 50 µL 10 mM formic acid (30 min on ice). In a white 96 well plate 20 µL cell extracts and 80 µL 1:8 diluted YSi scintillation beads (Perkin Elmer) were mixed. The plate was spun down, and a Packard Top Count NXT counter recorded light emission (scintillation) after an 8 h delay.

hSUCNR1 = target: T2, hSUCNR1 (Homo sapiens, UniProt Q9BXA5); assay: IP3 turnover assay in hSUCNR1 transfected HEK-293 cells; conditions: for hSUCNR1 % @10^−4M / hSUCNR1 efficacy, %: IP3 turnover; for hSUCNR1 % @10^−4M: relative to succinate (100%); for hSUCNR1 efficacy, %: efficacy relative to succinate (100%), HEK cells (N = 3)
T2 construct: FLAG (own knowledge: pCMV-Tag 2B is an N-terminal FLAG vector); host or cells: HEK-293, transient transfection with Lipofectamine-2000
T2 sequence (Q9BXA5 1-334): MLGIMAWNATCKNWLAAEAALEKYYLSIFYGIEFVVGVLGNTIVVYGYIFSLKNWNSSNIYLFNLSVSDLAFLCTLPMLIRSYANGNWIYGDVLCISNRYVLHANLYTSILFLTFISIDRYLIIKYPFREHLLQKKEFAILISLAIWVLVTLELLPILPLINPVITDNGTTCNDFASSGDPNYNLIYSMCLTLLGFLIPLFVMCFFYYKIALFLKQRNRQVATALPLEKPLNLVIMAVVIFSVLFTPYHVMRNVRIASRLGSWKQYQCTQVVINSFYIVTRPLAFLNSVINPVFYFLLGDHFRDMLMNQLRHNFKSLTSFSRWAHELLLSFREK
Procedure: as §1, §2, §3

SUCNR1 = assay: Active/inactive grouping by EC50 threshold (ALiBERO training set, Table S1); conditions: active (1) / inactive (0), EC50 threshold of 10 µM
Source text: In brief, starting from the homology model supported by mutagenesis data[4], ALiBERO introduced receptor flexibility via Normal Mode Analysis and Monte Carlo sampling, to generate a small subset of receptor models (pockets). […] For a list of all compounds used in the optimisation protocol, see Table S1. Receptor structures were then chosen based on their ability to discriminate actives from inactives in a retrospective virtual screening using the docking protocol and scoring function in ICM (Molsoft L.L.C., San Diego, CA, USA)[20], as measured by the normalised square root area under the curve (NSQ_AUC). […] The ALiBERO-optimised receptor ensemble was subsequently validated in a virtual ligand screening using an external test set with a higher active:decoy ratio (~1:50).
ALiBERO is an iterative sampling-selection protocol for receptor optimisation that relies on the use of ligand information for selecting the best-performing receptor conformations. Homology models of the mouse SUCNR1 receptor were constructed according to Trauelsen et al.[4] and loaded into ICM (Molsoft L.L.C., San Diego, CA, USA). The structure was converted into an ICM object, thereby assigning protein atom types, optimising hydrogens and His, Pro, Asn, […] and Cys side-chain conformations. […] For a list of all compounds used in the optimisation protocol, see Table S1. ALiBERO was performed using the prepared receptor structure and ligand training set as input. Binding site residues were manually selected based on proximity to the position of MRS2500 in the superimposed structure of the P2Y1 receptor (PDB 4XNW). 100 elastic network normal mode analysis derived conformers were built in order to recreate backbone and side-chain flexibility (T = 300 K). Next, a flexible-ligand static-receptor small-scale virtual screening was performed on each of the receptor conformers, from which several pockets were selected for the following generation. The ligand and decoy molecules were docked into mSUCNR1, represented as pre-calculated potential grids and then sorted according to their ICM VLS scores. The maximum number of complementary pockets for each generation was set to 5 with a maximum of 10 generations. Receptor models were selected based on their combined screening performance, as determined by the normalised square root area under the curve, NSQ_AUC. After each round of virtual screening, an all-atom Monte Carlo side-chain refinement was performed to account for induced-by-ligand changes. NSQ_AUC values were calculated according to Katritch et al.[16].

[1] = dose-response curves of induction of IP3 turnover in SUCNR1 transfected HEK cells (N = 3)
[2] = dose-response curves of induction of IP3 turnover in SUCNR1 transfected HEK cells (N = 3), read-out: mSUCNR1 pEC50 (converted)
[3] = dose-response curves of induction of IP3 turnover in SUCNR1 transfected HEK cells (N = 3), read-out: hSUCNR1 pEC50 (converted)
[4] = relative to the 4-methoxy compound 17

Row | Compound | Active (SUCNR1) | mSUCNR1 efficacy, % (mSUCNR1) [%] | hSUCNR1 efficacy, % (hSUCNR1) [%] | EC50 (mSUCNR1) [nM] | EC50 (hSUCNR1) [nM] | EC50 (mSUCNR1; [2]) [nM] | EC50 (hSUCNR1; [3]) [nM] | also measured
1 | O=C(O)C[C@H](NC(=O)c1cccc(I)c1)C(=O)O [Compound 6, (3-Iodobenzoyl)-L-aspartic acid] | 0 (inactive (0)) | – | – | – | – | – | – | mSUCNR1 % @10^−4M (mSUCNR1): 64% @10^−4M; hSUCNR1 % @10^−4M (hSUCNR1): 50% @10^−4M
2 | O=C(O)C[C@H](NC(=O)c1ccc(Br)o1)C(=O)O [Compound 4, (5-Bromofuran-2-carbonyl)-L-aspartic acid] | 0 (inactive (0)) | 95.8 ± 2.9 | 78.1 ± 7.5 | – | – | – | – | mSUCNR1 pEC50 (mSUCNR1; [1]): 4.93 ± 0.05; hSUCNR1 pEC50 (hSUCNR1; [1]): 4.53 ± 0.13
3 | O=C(O)C[C@H](NC(=O)c1ccc(-c2ccccc2)o1)C(=O)O [Compound 10, (5-Phenylfuran-2-carbonyl)-L-aspartic acid] | 1 (active (1)) | 81.3 ± 3.6 | 81.6 ± 8.4 | 692 | 5130 | – | – | –
4 | O=C(O)C[C@H](NC(=O)c1cccc(-c2ccc(F)cc2)c1)C(=O)O [Compound 25, (4′-Fluoro-[1,1′-biphenyl]-3-carbonyl)-L-aspartic acid] | 1 (active (1)) | 58.0 ± 4.5 | 49.7 ± 3.9 | – | – | 3980 | 1230 | decrease in potency on the mouse orthologue (mSUCNR1; relative to 3): 10 fold
5 | CCCOc1ccc(-c2cccc(C(=O)N[C@@H](CC(=O)O)C(=O)O)n2)cc1 [Compound 33, (6-(4-Propoxyphenyl)picolinoyl)-L-aspartic acid] | – | 61.5 ± 3.8 | 66.4 ± 7.2 | – | – | 51.3 | 58.9 | –
6 | O=C(O)C[C@H](NC(=O)Cc1ccc(Br)cc1)C(=O)O [Compound 8, (2-(4-Bromophenyl)acetyl)-L-aspartic acid] | 0 (inactive (0)) | – | – | – | – | – | – | mSUCNR1 % @10^−4M (mSUCNR1): 11% @10^−4M; hSUCNR1 % @10^−4M (hSUCNR1): 5% @10^−4M
7 | O=C(O)C[C@H](NC(=O)c1ccccc1Cl)C(=O)O [Compound 5, (2-Chlorobenzoyl)-L-aspartic acid] | 0 (inactive (0)) | – | – | – | – | – | – | mSUCNR1 % @10^−4M (mSUCNR1): 13% @10^−4M; hSUCNR1 % @10^−4M (hSUCNR1): 22% @10^−4M
8 | O=C(O)C[C@H](NC(=O)c1ccc(-c2ccc(F)cc2)cc1)C(=O)O [Compound 26, (4′-Fluoro-[1,1′-biphenyl]-4-carbonyl)-L-aspartic acid] | 0 (inactive (0)) | – | – | – | – | – | – | mSUCNR1 % @10^−4M (mSUCNR1): 7% @10^−4M; hSUCNR1 % @10^−4M (hSUCNR1): 4% @10^−4M
9 | O=C(O)C[C@H](NC(=O)c1cccc(-c2ccc(F)cc2)n1)C(=O)O [Compound 27, (6-(4-Fluorophenyl)picolinoyl)-L-aspartic acid] | 1 (active (1)) | 89.3 ± 6.1 | 78.2 ± 8.0 | – | – | 794 | 933 | –
10 | COc1ccccc1-c1ccc(C(=O)N[C@@H](CC(=O)O)C(=O)O)o1 [Compound 16, (5-(2-Methoxyphenyl)furan-2-carbonyl)-L-aspartic acid] | 1 (active (1)) | 78.1 ± 3.1 | 103.8 ± 7.9 | 724 | 5130 | – | – | –
11 | CS(=O)(=O)CCCOc1ccc(-c2ccc(C(=O)N[C@@H](CC(=O)O)C(=O)O)o2)cc1 [Compound 24, (5-(4-(3-(Methylsulfonyl)propoxy)phenyl)furan-2-carbonyl)-L-aspartic acid] | 1 (active (1)) | 74.6 ± 2.1 | 63.9 ± 2.4 | 46.8 | 794 | – | – | –
12 | O=C(O)C[C@H](NC(=O)c1ccc(-c2ccc(OC(F)(F)F)cc2)o1)C(=O)O [Compound 20, (5-(4-(Trifluoromethoxy)phenyl)furan-2-carbonyl)-L-aspartic acid] | 1 (active (1)) | 69.7 ± 2.8 | 61.7 ± 3.6 | 191 | 102 | – | – | decrease in potency on mSUCNR1 (mSUCNR1; [4]): > 4 fold; increase in potency on hSUCNR1 (hSUCNR1; [4]): 2 fold
13 | COc1ccc(-c2cccc(C(=O)N[C@@H](CC(=O)O)C(=O)O)c2)cc1 [Compound 28, (4′-Methoxy-[1,1′-biphenyl]-3-carbonyl)-L-aspartic acid] | 1 (active (1)) | 64.0 ± 2.5 | 58.0 ± 2.7 | – | – | 1200 | 162 | –
14 | O=C(O)C[C@H](NC(=O)c1ccc(-c2ccc(C(F)(F)F)cc2)o1)C(=O)O [Compound 18, (5-(4-(Trifluoromethyl)phenyl)furan-2-carbonyl)-L-aspartic acid] | 1 (active (1)) | 80.6 ± 4.6 | 81.0 ± 7.2 | 155 | 282 | – | – | –
15 | Cc1cccc(-c2ccc(C(=O)N[C@@H](CC(=O)O)C(=O)O)o2)c1 [Compound 12, (5-(m-Tolyl)furan-2-carbonyl)-L-aspartic acid] | 1 (active (1)) | 81.6 ± 3.0 | 91.9 ± 5.3 | 851 | 9550 | – | – | –
16 | O=C(O)C[C@H](NC(=O)c1cccc(-c2ccc(OCC(F)(F)F)cc2)n1)C(=O)O [Compound 32, (6-(4-(2,2,2-Trifluoroethoxy)phenyl)picolinoyl)-L-aspartic acid] | – | 68.1 ± 2.5 | 88.7 ± 6.1 | – | – | 100 | 58.9 | –
